From US20050222036A1, “Peptide compositions with effects on blood glucose” (priority 2000, published 2005) come the findings set out here.

Experiment [1] concerns rats. The experiment is described as follows: Passive avoidance (PA), associative learning in rats. The format is in vivo, rat. As to conditions: i.c.v.; GLP-1 10 ng and 100 ng, [Ser(2)]exendin(1-9) 10 ng. As for the experimental part: Passive avoidance was performed in an apparatus (MED Associates Inc., St. Albans, Vt.) consisting of one dark chamber and one light chamber that can be divided by a guillotine door. The training procedure was executed as previously described (N. Venable et al. Psychopharmacology 100, 215 (1990)). Rats were administered a 1.0 mA shock for 3 sec, mice a 0.5 mA shock for 5 sec. Retention tests were performed either at 1, 3 or 7 days post-pairing. Maximum latency was 600 sec for rats, 300 sec for mice.
In the instant invention, rats were pretreated intranasally with one of three dose levels (10 μg/kg, 30 μg/kg, or 60 μg/kg) of Gilatide in 5% β cyclodextrin or an octamer having a sequence homology to CRH and urocortin. […] A control group received vehicle (5% cyclodextrin) alone. With three dose levels for each of the peptides studied, a total of seven (7) groups were employed, each group having 5-8 rats, for a total of 50 rats tested. On the first day of conditioning, the pretreated rats (N=7-13) were administered a single foot shock trial (0.1 mA over 3 seconds) after entering the dark compartment. The animals were replaced in the test apparatus and latencies again were measured on Days 1, 3, 7, and 21 following the aversive stimulus.
Rats were pretreated with either […] 10 μg/kg Gilatide in 5% β cyclodextrin or vehicle by one of three routes of administration: intranasally, subcutaneously, or intraperitoneally. On Day 0, the rats (N=7-13) were conditioned by administration of a single foot shock trial (0.1 mA over 3 seconds) after entry into the dark compartment of a passive avoidance apparatus (the same passive avoidance chamber used in the first series of experiments). At 24 hours (Day 1) following the initial test, and delivery of the single shock, the animals were replaced in the test apparatus and latency again measured. (FIG. 7)
Rates (N=5-10) were pretreated intranasally with one of five dose levels (0.1 μg/kg, 1 μg/kg, 3 μg/kg, 30 μg/kg or 60 μg/kg) of Gilatide in 5% β cyclodextrin, vehicle (5% cyclodextrin), or Nicotine (0.3 mg/kg, subcutaneously). On Day 0, the rats were conditioned by administration of a single foot shock trial (0.1 mA over 3 seconds) after entry into the dark compartment of a passive avoidance apparatus (the same passive avoidance chamber used in the other experiments). The preconditioned rats were retested on Days 1, 3, 7, and 21.
The effect of Gilatide was tested on memory consolidation by administering the peptide after shock testing. Rats (N=7-13) were preconditioned by administering a single foot shock trial (0.1 mA over 3 seconds) after entering the dark compartment of a passive avoidance apparatus. Twenty (20) minutes after the conditioning session, one group of rats was administered 10 μg/kg of Gilatide intranasally (TRN-TXT). Another group of rats (TXT-DLY-TRN) was administered this same dose of Gilatide 24 hours after the conditioning session. Both treatment groups were returned to the test apparatus 24 hours following treatment and latencies were again measured. […] (FIG. 13)
The effects of Gilatide when used with or without an Exendin-4 antagonist were observed and measured. Rats (N=6-13) were pretreated with either 10 μg/kg or 20 μg/kg of Gilatide with or without an Exendin-4 antagonist (10 μg/kg). A control group was administered vehicle alone. The pretreated rats were conditioned on Day 0 by administration of a single foot shock trial (0.1 mA over 3 seconds) after entry into the dark compartment of a passive avoidance apparatus (the same passive avoidance chamber used in the other experiments). The preconditioned rats were retested on 24 hours later. […] (FIG. 14)
Twenty-four hours later the rats were returned to the apparatus and retested. […] (FIG. 15)

The nature of experiment [2]: Blood glucose in fasting rats. As to conditions: 24 hour fasting rats, 100 ug intraperitoneal, 20 minutes after administration. In kind it is in vivo, rat. As for the experimental part:
Gilatide administered intraperitoneally (IP), but not intranasally (IN), lowers blood glucose levels in rats fasted for 24 hours. […] Gilatide's effect on blood glucose in fasting rats was measured. Groups of 24 hour fasting rats (n=5 or 6) were delivered either vehicle, insulin, Gilatide, GLP-1, exendin-4, Insulin A-chain, Insulin B-chain or C-peptide. Glucose levels were measured 20 minutes following intraperitoneal administration. All peptides were given at a dose of 100 ug (Table 2). In this experiment, insulin, the positive control, led to a 44% drop in blood glucose. Gilatide led to a significant drop in glucose level by 14%.

Experiment [3] concerns rat insulinoma cell line expressing the GLP-1R (RINm5f). As to the kind of experiment: ELISA of culture media for insulin, RINm5f cells. The format is cell-based. Conditions: 10 nM peptide, 6 hours. As for the experimental part: To confirm biologic activity of Gilatide peptides or analogs, a rat insulinoma cell line expressing the GLP-1R (RINm5f) can be cultured and incubated the Gilatide peptide or analogs followed by an ELISA study as described below.
To confirm biological activity of synthesized Gilatide peptide ([Ser(2)]exendin(1-9)) that was synthesized with a stearic acid residue added to the N-terminus, GLP-1 or [Ser(2)]exendin(1-9) (10 nM) were incubated with the cultured rat insulinoma cell line expressing the GLP-1R (RINm5f) in the presence or absence of the GLP-1R antagonist, exendin(9-39) (10 nM). Rat insulinoma cells (RINm5f) were cultured in 24 well plates and incubated in serum-free medium for 1 hour before treatment. The GLP-1 peptide antagonist exendin (9-39) (10 nM) was added 1 hour prior to GLP-1 (7-36) or [Ser(2)]exendin(1-9) (10 nM). Cells were then incubated for 6 hours in the presence of either GLP-1 or [Ser(2)]exendin(1-9). Media were then removed and assayed for insulin concentrations via ELISA (Pennisula Labs, San Carlos, Calif.).

A short description of experiment [4]: Blood glucose in fasting rats. In kind it is in vivo, rat. Conditions: for blood glucose: intra-nasal.

With “HAEGTFTSDVSSVLEGQAAKEFIAWLVKGR [GLP-1, glucagon-like peptide 1]”, in experiment [1], the “latency in PA” value is “enhanced latency”. The “Blood glucose mean ± s.e.m.” value in experiment [2] was 89.5 ± 1.1 mg/dL. Moreover, in experiment [3], the “insulin release into culture media” value is “stimulated insulin release”. Moreover, the blood glucose is 73.8 ± 2.2 P < 0.05 mg/dl in experiment [4] (3 μg), 70.6 ± 2.5 P < 0.01 mg/dl in experiment [4] (10 μg) and 71.2 ± 2.1 P < 0.05 mg/dl in experiment [4] (30 μg). The “fasting blood glucose levels” value in experiment [4] (intranasal) is listed as “lowered fasting blood glucose levels”.
